Results on four molecules are retold here after patent US20240025844A1, “PHENYL UREA ANALOGS AS FORMYL PEPTIDE RECEPTOR 1 (FPR1) SELECTIVE AGONISTS” (Allergan, Inc., priority 2018, published 2024).

In one experiment the target is T1, FPR2 (Homo sapiens, UniProt P25090).
T1 construct: expressed in transfected cells; host or cells: CHO-Gα16 cells
T1 sequence (P25090 1-351): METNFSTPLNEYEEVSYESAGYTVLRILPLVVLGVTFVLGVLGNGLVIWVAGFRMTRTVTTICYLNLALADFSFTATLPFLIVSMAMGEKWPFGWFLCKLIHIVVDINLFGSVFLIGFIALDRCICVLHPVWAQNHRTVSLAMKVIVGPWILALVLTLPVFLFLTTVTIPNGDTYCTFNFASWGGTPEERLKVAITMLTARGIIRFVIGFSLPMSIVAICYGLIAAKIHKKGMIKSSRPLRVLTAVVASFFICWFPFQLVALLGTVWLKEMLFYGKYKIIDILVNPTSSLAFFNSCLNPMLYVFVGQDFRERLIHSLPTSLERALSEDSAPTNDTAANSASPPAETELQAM
As to the kind of experiment: Compound-induced calcium activity on FLIPR Tetra in Gα16 cells stably expressing FPR2. It is filed as cell-based. Particulars: for FPR2 Ga16-HEK293 (Rel. eff.): relative efficacy, value in brackets, table head Ga16-HEK293, text CHO-Gα16 cells; for EC50: table head Ga16-HEK293, text CHO-Gα16 cells stably expressing FPR2, tested 0.61 to 10,000 nM. The protocol: (§1) CHO-Gα16 cells stably expressing FPR1 or FPR2 were cultured in (F12, 10% FBS, 1% PSA, 400 μg/ml geneticin and 50 μg/ml hygromycin). In general, the day before the experiment, 18,000 cells/well were plated in a 384-well clear bottom poly-D-lysine coated plate. The following day the screening compound-induced calcium activity was assayed on the FLIPR^Tetra. The drug plates were prepared in 384-well microplates using the EP3 and the MultiPROBE robotic liquid handling systems. Compounds were tested at concentrations ranging from 0.61 to 10,000 nM. Results are expressed as EC50 (nM) and efficacy values.

In another experiment the target is T2, FPR1 (Homo sapiens, UniProt P21462).
T2 construct: expressed in transfected cells; host or cells: CHO-Gα16 cells
T2 sequence (P21462 1-350): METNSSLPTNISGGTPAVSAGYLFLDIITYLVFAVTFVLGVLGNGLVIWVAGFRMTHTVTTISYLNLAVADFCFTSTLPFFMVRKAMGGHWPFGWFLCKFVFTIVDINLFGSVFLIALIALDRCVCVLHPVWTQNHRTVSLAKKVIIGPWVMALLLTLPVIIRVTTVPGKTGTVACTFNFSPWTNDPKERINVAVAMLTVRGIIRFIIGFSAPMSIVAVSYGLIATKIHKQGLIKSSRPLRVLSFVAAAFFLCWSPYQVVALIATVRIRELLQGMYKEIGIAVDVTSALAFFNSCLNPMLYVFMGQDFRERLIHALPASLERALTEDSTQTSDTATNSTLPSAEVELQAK
As to the kind of experiment: Compound-induced calcium activity on FLIPR Tetra in Gα16 cells stably expressing FPR1. It is filed as cell-based. As to conditions: for FPR1 Ga16-HEK293 (Rel. eff.): relative efficacy, value in brackets, table head Ga16-HEK293, text CHO-Gα16 cells; for EC50: table head Ga16-HEK293, text CHO-Gα16 cells stably expressing FPR1, tested 0.61 to 10,000 nM. The protocol: as §1

Regarding `CC(C)C[C@H](NC(=O)CNC(=O)Nc1ccc(Br)cc1)C(=O)O` [Compound 1, (S)-2-(2-(3-(4-bromophenyl)ureido)acetamido)-4-methylpentanoic acid], on FPR2, the “FPR2 Ga16-HEK293 (Rel. eff.)” value is on record as 0.91 and the EC50 was 0.224 µM. Also, at FPR1, the “FPR1 Ga16-HEK293 (Rel. eff.)” value was determined as 1.00 and the EC50 amounted to 0.00058 µM.

In the case of `O=C(CNC(=O)Nc1ccc(Br)cc1)N[C@@H](Cc1ccccc1)C(=O)O` [Compound 4, (S)-2-(2-(3-(4-bromophenyl)ureido)acetamido)-3-phenylpropanoic acid], on FPR2, the “FPR2 Ga16-HEK293 (Rel. eff.)” value is recorded as 1.07 and the EC50 stood at 0.356 µM. In addition, on FPR1, the “FPR1 Ga16-HEK293 (Rel. eff.)” value stood at 0.97 and the EC50 amounted to 0.0147 µM.

Take `CC(C)C[C@H](NC(=O)CCNC(=O)Nc1ccc(Br)cc1)C(=O)O` [Compound 5, (S)-2-(3-(3-(4-bromophenyl)ureido)propanamido)-4-methylpentanoic acid]: on FPR2, the “FPR2 Ga16-HEK293 (Rel. eff.)” value amounted to 0.81 and the EC50 was found to be 5.63 µM. Further, at FPR1, the “FPR1 Ga16-HEK293 (Rel. eff.)” value was found to be 0.99 and the EC50 is 0.076 µM.

Regarding `CCC[C@H](NC(=O)CNC(=O)Nc1ccc(Br)cc1)C(=O)O` [Compound 6, (S)-2-(2-(3-(4-bromophenyl)ureido)acetamido)pentanoic acid], at FPR2, the “FPR2 Ga16-HEK293 (Rel. eff.)” value is listed as 1.05 and the EC50 came to 0.308 µM. For the same molecule, on FPR1, the “FPR1 Ga16-HEK293 (Rel. eff.)” value worked out at 0.98 and the EC50 stood at 0.00493 µM.

As usually defined, the EC50 is the midpoint of the concentration-response curve.
